Test results as given in patent US8357529B2, “Methods of in vitro protein synthesis” (The Board of Trustees of the Leland Stanford Junior …, priority 2002, dated 2013).
Like-named read-outs stand apart in the source and are kept apart here.

Experiments:
Assay type in all cases: biochemical, Escherichia coli
[1] = system: oxidative phosphorylation (electron transport chain); assay: CAT synthesis in new system with inhibitor of oxidative phosphorylation, oxygen or argon headspace; details: 20 μl batch, 37° C., 5 hours
Method: In seeking to understand how this yield was accomplished, inhibitors of oxidative phosphorylation were tested to establish that this process was partially responsible for the protein production capability of this new technology. […] HQNO inhibits the electron transport chain part of oxidative phosphorylation. All cases are 20 μl batch reactions, and were incubated at 37° C. for 5 hours. The head spaces of the batch reactors were filled with either oxygen or argon, an inert gas. […]. Furthermore, protein synthesis should be unaffected upon the addition of HQNO in the cases where argon is present and oxygen is not available.

[2] = system: protein synthesis in E. coli S30 extract, PANOx system; assay: Cell-free protein synthesis in the PANOx system (standard reaction mixture)
Method: A standard reaction mixture for a coupled transcription-translation reaction, herein referred to as the PANOx system (Kim and Swartz (2001), supra.) contains the following components: 57 mM HEPES-KOH (pH7.5), 1.2 mM ATP, 0.85 mM each of GTP, UTP and CTP, 1 mM DTT, 200 mM potassium glutamate, 80 mM ammonium acetate, 16 mM magnesium acetate, 34 μg/ml folinic acid, 170.6 μg/ml E. coli tRNA mixture, 13.3 μg/ml plasmid, 100 μg/ml T7 RNA polymerase, 2 mM each of 20 unlabeled amino acids, 11 μM [^14C]leucine, 2% Poly(ethylene glycol) 8000, 33 mM PEP, 0.33 mM nicotinamide adenine dinucleotide, 0.26 mM Coenzyme A, 2.7 mM sodium oxalate and 0.24 volumes of S30 extract. Prokaryotic cell-free protein synthesis is performed using a crude S30 extract derived from Escherichia coli K12 (strain A19 ΔtonA ΔtnaA ΔspeA ΔendA met+), with slight modifications from the protocol of Pratt, J. M. 1984. (Coupled transcription-translation in prokaryotic cell-free systems. In Transciption and translation: a practical approach. Hanes, B. D., and S. J. Higgins. (Eds.). p. 179-209. IRL Press, New York.) T7 RNA polymerase was prepared from E. coli strain BL21 (pAR1219) according to the procedures of Davanloo et al. 1984. (Cloning and expression of the gene for bacteriophage T7 RNA polymerase. Proc Natl Acad Sci USA 81:2035-2039.)
(§1) Reactions were incubated at 37° C. for 5-6 hours. The amount of synthesized protein is estimated from the measured TCA-insoluble radioactivities using a liquid scintillation counter (Beckman LS3801). (Kim et al. 1996). Soluble protein yields were determined as previously described. (Kim and Swartz 2000).

[3] = system: CAT expression in E. coli S30 extract cell-free protein synthesis
Method: as §1

CCCCCCCc1cc(O)c2ccccc2[n+]1[O-] [HQNO, 2-heptyl-4-hydroxyquinoline-N-oxide]
CAT synthesis after inhibitor addition ([1]; argon headspace): unaffected
CAT synthesis after inhibitor addition ([1]; presence of oxygen, with or without pyruvate): substantially decreases

[N-]=[N+]=[N-] [azide]
protein synthesis yields in the PANOx system with inhibitor of oxidative phosphorylation [2]: unaffected

CC(C)(COP(=O)(O)OP(=O)(O)OC[C@H]1O[C@@H](n2cnc3c(N)ncnc32)[C@H](O)[C@@H]1OP(=O)(O)O)[C@@H](O)C(=O)NCCC(=O)NCCS [CoA, Coenzyme A]
effect of removal of the cofactor on relative protein production ([3]; Cytomim system, CAT, 15 μl, 6 hours): no significant effect

O=[N+]([O-])c1ccc(O)c([N+](=O)[O-])c1 [2,4-dinitrophenol]
protein synthesis yields in the PANOx system with inhibitor of oxidative phosphorylation ([2]; PANOx system): unaffected

N[C@@H](CCC(=O)[O-])C(=O)[O-].[Mg+2] [magnesium glutamate]
optimal magnesium value in the standard reaction mixture ([2]; standard reaction mixture, includes Mg from cell extract): 23.3 mM

[Mg+2] [magnesium]
optimum magnesium concentration for protein expression ([3]; new environment, with 33 mM sodium pyruvate, includes Mg from cell extract): approximately 11 mM

O=C(CC(=O)C(F)(F)F)c1cccs1 [thenoyltrifluoroacetone]
protein synthesis yields in the PANOx system with inhibitor of oxidative phosphorylation ([2]; PANOx system): unaffected

CC(=O)[O-].CC(=O)[O-].[Mg+2] [magnesium acetate]
optimal magnesium value in the standard reaction mixture [2]: 19.3 mM

N#CC(C#N)=NNc1cccc(Cl)c1 [carbonyl-cyanide-m-chlorophenylhydrazone]
protein synthesis yields in the PANOx system with inhibitor of oxidative phosphorylation ([2]; PANOx system): unaffected
